Results as given in the NIST ThermoML archive (doi:10.1021/je200872n).
± gives the expanded uncertainty stated by the source. One block for each molecule: values may come before it.

Experiments:
[1] = mn = molality of the nth substance listed, in mol/kg; conditions: 298.15 K, 101 kPa, Liquid; for mass density: Vibrating tube method; for viscosity: Capillary tube (Ostwald / Ubbelohde) method
[2] = refractive index (Na D-line) (dimensionless); conditions: 298.15 K; 101.33 kPa; Liquid; Standard Abbe refractometry
[3] = 298.15 K, Liquid

Compound: CCC[n+]1ccn(C)c1.[Br-] [1-methyl-3-propylimidazolium bromide] + CN(C)C=O
mass density ([1]; m1 = 0.03): 946.19 ± 0.46 kg/m3 | mass density ([1]; m1 = 0.0789): 949.63 ± 0.46 kg/m3 | mass density ([1]; m1 = 0.122): 952.52 ± 0.46 kg/m3

Compound: Oc1ccccc1C=Nc1ccccc1N=Cc1ccccc1O [2,2'-[1,2-phenylenebis(nitrilomethylidyne)]bis-phenol] + CN(C)C=O
viscosity ([1]; m1 = 0.01): 0.802 ± 0.008 mPa·s | viscosity ([1]; m1 = 0.0302): 0.818 ± 0.008 mPa·s | viscosity ([1]; m1 = 0.0505): 0.833 ± 0.008 mPa·s | viscosity ([1]; m1 = 0.0698): 0.847 ± 0.008 mPa·s | viscosity ([1]; m1 = 0.0851): 0.859 ± 0.008 mPa·s | viscosity ([1]; m1 = 0.1098): 0.878 ± 0.008 mPa·s | viscosity ([1]; m1 = 0.1268): 0.89 ± 0.008 mPa·s | viscosity ([1]; m1 = 0.1507): 0.905 ± 0.008 mPa·s | viscosity ([1]; m1 = 0.1705): 0.919 ± 0.008 mPa·s | mass density ([1]; m1 = 0.0295): 946.01 ± 0.46 kg/m3 | mass density ([1]; m1 = 0.051): 947.47 ± 0.46 kg/m3 | mass density ([1]; m1 = 0.0697): 948.75 ± 0.46 kg/m3 | mass density ([1]; m1 = 0.0894): 950.08 ± 0.46 kg/m3 | mass density ([1]; m1 = 0.1106): 951.51 ± 0.46 kg/m3 | mass density ([1]; m1 = 0.1299): 952.82 ± 0.46 kg/m3 | mass density ([1]; m1 = 0.1465): 953.94 ± 0.46 kg/m3 | mass density ([1]; m1 = 0.1701): 955.51 ± 0.46 kg/m3 | mass density ([1]; m1 = 0.1898): 956.83 ± 0.46 kg/m3

Compound: CCCCCCn1cc[n+](C)c1.[Br-] [3-hexyl-1-methyl-1H-imidazolium bromide] + CN(C)C=O
mass density ([1]; m1 = 0.0245): 945.76 ± 0.46 kg/m3 | mass density ([1]; m1 = 0.0738): 948.9 ± 0.46 kg/m3 | mass density ([1]; m1 = 0.1205): 951.72 ± 0.46 kg/m3

Compound: CN(C)C=O [dimethylformamide]
refractive index [2]: 1.4281 ± 0.0004 | mass density ([3]; 101 kPa, Vibrating tube method): 944 ± 0.46 kg/m3 | viscosity ([3]; 101.33 kPa, Capillary tube (Ostwald / Ubbelohde) method): 0.805 ± 0.008 mPa·s

Next, values leading:

mass density ([1]; m1 = 0.1012): 951.01 ± 0.46 kg/m3 | mass density ([1]; m1 = 0.1527): 954.4 ± 0.46 kg/m3 | mass density ([1]; m1 = 0.197): 957.2 ± 0.46 kg/m3
Compound: CCCCn1cc[n+](C)c1.[Br-] [1-butyl-3-methylimidazolium bromide] + CN(C)C=O

mass density ([1]; m1 = 0.026): 947.47 ± 0.46 kg/m3 | mass density ([1]; m1 = 0.0508): 949.26 ± 0.46 kg/m3 | mass density ([1]; m1 = 0.0747): 950.79 ± 0.46 kg/m3
Compound: CCCCCn1cc[n+](C)c1.[Br-] [1-pentyl-3-methylimidazolium bromide] + CN(C)C=O
